Measurements taken from patent US10568886B2, “Targeting Cyb5R3” (University of Pittsburgh—Of the Commonwealth System of …, priority 2014, dated 2020).

Experiments:
[1] = test system: oxidized sGC; experiment: Purified Cyb5R3/oxidized sGC cGMP assay stimulated with Bay 58-2667; type: biochemical; conditions: 100 nM Bay 58-2667, in the presence of Cyb5R3
Experimental: FIG. 4. Purified Cyb5R3 directly reduces oxidized sGC resulting in limited stimulation by the sGC activator Bay 58-2667. Purified Cyb5R3, Cyb5b and oxidized sGC were mixed and incubated in trienthanolamine buffer, DTT (positive control), ZINC 747 (Cyb5R3 inhibitor), +/−NADH (required co-factor for Cyb5R3) in the absence of oxygen. Samples were then combined with GTP, and Mn^2+ followed by stimulation with 100 nM Bay 58-2667. After 5 min, reactions were stopped and samples were measured for cGMP. Quantification of cGMP is shown in the graph (n=2). Error bars represent s.e.m.

[2] = test system: primary rat VSMs; experiment: Rescue of sGC protein degradation by Bay 58-2667 in VSMs (Western blot); type: cell-based; conditions: Cyb5R3 knockdown or ZINC 747 treated VSMs
Text: FIG. 7. Bay 58-2667 rescues sGC protein degradation following Cyb5R3 knockdown or activity inhibition. a, Western blot analysis for sGC expression in primary rat VSMs treated with and without Bay 58-2667 following Cyb5R3 knockdown or with ZINC 39395747 (b). Quantification of sGC expression is shown in the graph below (n=2). Error bars represent s.e.m.
It was therefore tested if Bay 58 2667 could rescue the effects caused by decreased Cyb5R3 expression and activity.

[3] = test system: sGC-Cyb5R3 macromolecular complexes; experiment: Proximity ligation assay for sGC-Cyb5R3 complexes in VSMs; type: cell-based; conditions: ODQ 10 μM, 10 min, primary rat aortic VSMs
Text: FIG. 2. […] Cells were then subjected to a proximity ligation assay and imaged using confocal microscopy for sGC-Cyb5R3 macromolecular complexes (red punctates). Quantification of complexes per nuclei is shown in graph (n=3). **** indicates significance of <0.0001 and error bars are s.e.m. […] Following ODQ treatment, VSMs were fixed and subjected to a proximity ligation assay (PLA) to determine the association between oxidized sGC and Cyb5R3.

[4] = target: T1, purified human CyB5R3 (Homo sapiens, UniProt P00387); experiment: NADH-ferricyanide reductase activity inhibition assay with purified Cyb5R3; type: biochemical; conditions: for Cyb5R3 inhibitory activity, SAR trend of phenyl substituents: para position: carbon, chlorine, bromine
T1 construct: His6 (N); made in house; host or cells: E. coli SoluBL21 (Genlantis)
T1 sequence (P00387 1-301): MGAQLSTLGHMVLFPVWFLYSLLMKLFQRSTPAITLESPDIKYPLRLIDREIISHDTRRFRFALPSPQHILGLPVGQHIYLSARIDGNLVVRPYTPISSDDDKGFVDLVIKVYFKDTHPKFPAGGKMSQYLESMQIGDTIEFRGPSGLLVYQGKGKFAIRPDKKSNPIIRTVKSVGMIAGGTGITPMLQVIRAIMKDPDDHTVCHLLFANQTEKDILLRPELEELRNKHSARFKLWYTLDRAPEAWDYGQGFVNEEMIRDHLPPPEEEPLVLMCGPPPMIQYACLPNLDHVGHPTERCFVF
Experimental: FIG. 13. […] Primary screen using purified human CyB5R3 was incubated with each compound (500 μM) followed by activity measurements with an NADH-ferricyanide reductase assay. […] Purified proteins were prepared as previously described in Sparacino-Watkins et al. Briefly, human Cyb5R3 gene was cloned into the pET28a plasmid containing a His6 tag on the N-terminus of Cyb5R3. The plasmid was transformed into SoluBL21 cells (Genlantis) and protein purification was carried out as previously described. […] Chromatographic separation was conducted with an Äkta-Purifier FPLC (GE Healthcare Life Sciences, USA) running Unicorn software version 5.1. Metal affinity chromatography resin, Ni-NTA superflow (Qiagen), was packed into a XK 26/20 column (GE). Protein identity was confirmed with liquid chromatography and tandem mass spectrometry (LC-MS/MS, University of Pittsburgh Genome and Protein Core Facilities). The NADH-ferricyanide reductase activity for purified Cyb5R3 was assayed by spectrophotometric measurements using the rate of potassium ferricyanide reduction at 420 nm, according to Strittmatter and […]. […] The reaction was started by addition of cofactor NADH and reduction of ferricyanide was followed for 2 min by recording the absorbance decrease at 420 nm using Cary 50 spectrophotometer and small glass cuvettes with a 0.2 cm path length. Since NADH has partial reduction power independent of Cyb5R3, the reaction rate was corrected by subtracting the reaction rate of ferricyanide in the absence of enzyme. The enzyme activity was calculated using the extinction coefficient of 1.02 mM^-1 cm^-1 for the difference in absorbance between reduced and oxidized form of ferricyanide. In order to observe the inhibitory effect of each Cyb5R3 small molecule inhibitor, the compounds were pre-incubated with Cyb5R3 at 37° C. for 15 minutes followed by measurements in NADH-ferricyanide reductase activity as described above.

[5] = target: T1, purified human CyB5R3; experiment: as above; type: biochemical; conditions: 50 μM of each compound
[6] = test system: Cyb5R3; conditions: previous studies; cited from earlier work

Row | Compound | inhibition of CyB5R3, secondary screen [5] | inhibition of CyB5R3, primary screen ([4]; 500 μM of each compound) | also measured
1 | O=C(O)CCCCN(CCc1ccccc1OCc1ccc(CCc2ccccc2)cc1)Cc1ccc(C(=O)O)cc1 [Bay 58-2667, cinaciguat] | – | – | cGMP production on Bay 58-2667 stimulation [1]: does not increase cGMP production; sGC protein levels [2]: restoration of sGC protein levels
2 | O=c1onc2cnc3ccccc3n12 [ODQ, 1H-(1,2,4)oxadiazolo[4,3-a]quinoxalin-1-one] | – | – | number of sGC-Cyb5R3 macromolecular complexes [3]: increases number of macromolecular complexes
3 | CCCc1cc(=O)[nH]c(=S)[nH]1 [PTU, propylthiouracil, reference compound] | little inhibition | – | inhibition at 500 µM ([4]; 500 μM of each compound, read-out: inhibition of CyB5R3, primary screen): ~100%; concentration showing inhibition of Cyb5R3 [6]: approximately 275 μM
4 | O=c1cc(CSc2ccccc2)[nH]c(=S)[nH]1 [ZINC05626394] | 100% | 100% | –
5 | C[C@@H]1N=C(CSc2ccccc2)CC(=O)N1 [ZINC05774833] | – | abolished all inhibitory effects | –
6 | Cc1ccc(SCc2cc(=O)[nH]c(=S)[nH]2)cc1 [ZINC06493891] | – | – | Cyb5R3 inhibitory activity, SAR trend of phenyl substituents [4]: activity increases with atomic mass
7 | CCCCCOc1cc(=O)[nH]c(=S)[nH]1 [ZINC13957379] | – | 100% | –
8 | O=c1cc(CSc2ccc(Br)cc2)[nH]c(=S)[nH]1 [ZINC15987502] | – | – | Cyb5R3 inhibitory activity, SAR trend of phenyl substituents [4]: activity increases with atomic mass
9 | O=c1cc(CSc2ccccc2)[nH]c(=O)[nH]1 [ZINC17744101] | 50% | 100% | –
10 | CC(C)SCc1cc(=O)[nH]c(=S)[nH]1 [ZINC31773411] | – | 100% | –
